Test results taken from ChEMBL document CHEMBL5108067, “Discovery of Potent OTUB1/USP8 Dual Inhibitors Targeting Proteostasis in Non-Small-Cell Lung Cancer” (J Med Chem, 2022).

target: T1, Ubiquitin carboxyl-terminal hydrolase 8 (Homo sapiens) (UniProt P40818); assay: Inhibition of N-terminal His-6 tagged USP8 (734 to 1110 residues) (unknown origin) expressed in Escherichia coli BL21 (DE3) cells at 10 nM measured after 3 hrs by fluorescence based Plate reader method relative to control; details: values are per cent of control
T1 sequence (whole entry): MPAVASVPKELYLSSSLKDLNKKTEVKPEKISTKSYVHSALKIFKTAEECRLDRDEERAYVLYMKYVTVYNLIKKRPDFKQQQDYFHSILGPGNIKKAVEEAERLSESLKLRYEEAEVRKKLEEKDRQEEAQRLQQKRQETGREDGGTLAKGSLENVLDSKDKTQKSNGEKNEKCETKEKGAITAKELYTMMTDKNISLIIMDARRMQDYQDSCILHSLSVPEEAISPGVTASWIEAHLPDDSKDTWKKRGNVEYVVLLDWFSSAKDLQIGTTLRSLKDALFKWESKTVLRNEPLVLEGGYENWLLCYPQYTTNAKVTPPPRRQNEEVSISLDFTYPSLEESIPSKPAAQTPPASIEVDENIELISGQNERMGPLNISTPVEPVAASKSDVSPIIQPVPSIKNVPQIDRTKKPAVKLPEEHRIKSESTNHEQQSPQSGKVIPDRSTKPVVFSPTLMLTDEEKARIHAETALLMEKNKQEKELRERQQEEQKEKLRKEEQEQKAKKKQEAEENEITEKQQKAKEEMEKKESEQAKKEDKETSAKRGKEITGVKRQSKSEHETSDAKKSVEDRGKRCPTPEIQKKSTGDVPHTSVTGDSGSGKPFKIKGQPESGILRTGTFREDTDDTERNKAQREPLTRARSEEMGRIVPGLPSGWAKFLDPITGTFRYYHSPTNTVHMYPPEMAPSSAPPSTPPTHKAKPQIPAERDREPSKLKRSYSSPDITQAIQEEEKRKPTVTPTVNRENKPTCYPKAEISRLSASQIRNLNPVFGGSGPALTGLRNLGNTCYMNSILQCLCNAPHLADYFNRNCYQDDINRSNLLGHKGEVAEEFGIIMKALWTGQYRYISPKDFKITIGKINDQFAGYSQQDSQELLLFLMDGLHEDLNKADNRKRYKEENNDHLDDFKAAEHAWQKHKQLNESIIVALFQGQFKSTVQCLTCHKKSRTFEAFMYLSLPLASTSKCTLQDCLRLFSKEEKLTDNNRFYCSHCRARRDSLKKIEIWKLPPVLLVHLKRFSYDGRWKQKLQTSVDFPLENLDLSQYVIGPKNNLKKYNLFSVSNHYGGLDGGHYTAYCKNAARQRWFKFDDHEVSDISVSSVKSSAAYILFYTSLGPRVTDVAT

Compared with `O=C1c2ccccc2C(=O)c2oc(-c3cccc(OCCN4CCOCC4)c3)nc21`, `CN1CC[C@H](Oc2cccc(-c3nc4c(o3)C(=O)c3ccccc3C4=O)c2)C1` is lower in residual activity: 80% for the first, 60.2% for the second.

Going from `COc1ccc(F)c(-c2nc3c(o2)C(=O)c2ccccc2C3=O)c1Cl` to `O=C1c2ccccc2C(=O)c2oc(-c3c(F)ccc(F)c3F)nc21`, the residual activity falls from 41.5% to 36.6%.

Compared with `COc1ccc(F)c(-c2nc3c(o2)C(=O)c2ccccc2C3=O)c1`, `COc1cccc(-c2nc3c(o2)C(=O)c2ccccc2C3=O)c1` is lower in residual activity: 61.1% for the first, 52.7% for the second.

Compared with `COc1c(Cl)ccc(Cl)c1-c1nc2c(o1)C(=O)c1ccccc1C2=O`, `COc1cc(Cl)cc(-c2nc3c(o2)C(=O)c2ccccc2C3=O)c1` is lower in residual activity: 56.9% for the first, 49% for the second.

First: O=C1c2ccccc2C(=O)c2oc(-c3cccc(F)c3)nc21
Second: O=C1c2ccccc2C(=O)c2oc(-c3cccc([N+](=O)[O-])c3)nc21
The residual activity of the first is higher: 59.1% for the first, 41.9% for the second.

Compared with `O=C1c2ccccc2C(=O)c2oc(-c3ccccc3F)nc21`, `O=C1c2ccccc2C(=O)c2oc(-c3cccc(F)c3F)nc21` is higher in residual activity: 37.1% for the first, 40.1% for the second.

Going from `COc1cc(-c2nc3c(o2)C(=O)c2ccccc2C3=O)ccc1C` to `COc1cc(-c2nc3c(o2)C(=O)c2ccccc2C3=O)ccc1C(F)(F)F`, the residual activity rises from 57.9% to 58.5%.

Compared with `COc1cc(O[C@@H]2CCN(C)C2)cc(-c2nc3c(o2)C(=O)c2ccccc2C3=O)c1`, `CN1CC[C@@H](Oc2cccc(-c3nc4c(o3)C(=O)c3ccccc3C4=O)c2)C1` is lower in residual activity: 71.2% for the first, 68.3% for the second.

Compared with `CN1CC[C@@H](Oc2ccc(-c3nc4c(o3)C(=O)c3ccccc3C4=O)cc2Cl)C1`, `O=C1c2ccccc2C(=O)c2oc(-c3ccc(F)cc3Cl)nc21` is lower in residual activity: 65.5% for the first, 28.5% for the second.

First: O=C1c2ccccc2C(=O)c2oc(-c3c(F)cccc3F)nc21
Second: COc1cc(F)cc(-c2nc3c([nH]2)C(=O)c2ccccc2C3=O)c1
The residual activity of the first is lower: 39.1% for the first, 91.4% for the second.

target: T2, Ubiquitin thioesterase OTUB1 (Homo sapiens, UniProt Q96FW1); assay: Inhibition of N-terminal His-6 tagged OTUB1 (40 to 271 residues) (unknown origin) expressed in Escherichia coli BL21 (DE3) cells at 100 nM using Ub-Rho measured after 0.5 to 3 hrs by fluorescence based Plate reader method relative to control; details: time 0.5-3 hrs, values are per cent of control
T2 sequence (Q96FW1 whole entry, the tested form may be a part): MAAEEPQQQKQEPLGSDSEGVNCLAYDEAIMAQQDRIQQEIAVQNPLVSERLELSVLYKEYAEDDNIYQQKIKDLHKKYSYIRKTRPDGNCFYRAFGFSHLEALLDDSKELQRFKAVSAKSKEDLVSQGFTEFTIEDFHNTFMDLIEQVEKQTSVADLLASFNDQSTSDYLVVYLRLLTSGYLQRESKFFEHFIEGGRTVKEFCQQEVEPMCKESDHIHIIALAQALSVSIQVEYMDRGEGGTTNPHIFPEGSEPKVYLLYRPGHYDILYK

Compared with `O=C1c2ccccc2C(=O)c2oc(-c3cccc(OCCN4CCOCC4)c3)nc21`, `CN1CC[C@H](Oc2cccc(-c3nc4c(o3)C(=O)c3ccccc3C4=O)c2)C1` is lower in residual activity: 47.2% for the first, 38.7% for the second.

Going from `COc1ccc(F)c(-c2nc3c(o2)C(=O)c2ccccc2C3=O)c1Cl` to `O=C1c2ccccc2C(=O)c2oc(-c3c(F)ccc(F)c3F)nc21`, the residual activity falls from 20.5% to 15.6%.

First: COc1ccc(F)c(-c2nc3c(o2)C(=O)c2ccccc2C3=O)c1
Second: COc1cccc(-c2nc3c(o2)C(=O)c2ccccc2C3=O)c1
The residual activity of the first is higher: 31.2% for the first, 30.9% for the second.

Compared with `COc1c(Cl)ccc(Cl)c1-c1nc2c(o1)C(=O)c1ccccc1C2=O`, `COc1cc(Cl)cc(-c2nc3c(o2)C(=O)c2ccccc2C3=O)c1` is lower in residual activity: 42.4% for the first, 40.7% for the second.

First: O=C1c2ccccc2C(=O)c2oc(-c3cccc(F)c3)nc21
Second: O=C1c2ccccc2C(=O)c2oc(-c3cccc([N+](=O)[O-])c3)nc21
The residual activity of the first is higher: 26.3% for the first, 18.9% for the second.

First: O=C1c2ccccc2C(=O)c2oc(-c3ccccc3F)nc21
Second: O=C1c2ccccc2C(=O)c2oc(-c3cccc(F)c3F)nc21
The residual activity of the first is higher: 27.3% for the first, 19.8% for the second.

Going from `COc1cc(-c2nc3c(o2)C(=O)c2ccccc2C3=O)ccc1C` to `COc1cc(-c2nc3c(o2)C(=O)c2ccccc2C3=O)ccc1C(F)(F)F`, the residual activity falls from 59.9% to 46.4%.

Compared with `COc1cc(O[C@@H]2CCN(C)C2)cc(-c2nc3c(o2)C(=O)c2ccccc2C3=O)c1`, `CN1CC[C@@H](Oc2cccc(-c3nc4c(o3)C(=O)c3ccccc3C4=O)c2)C1` is lower in residual activity: 44.2% for the first, 34% for the second.

Compared with `CN1CC[C@@H](Oc2ccc(-c3nc4c(o3)C(=O)c3ccccc3C4=O)cc2Cl)C1`, `O=C1c2ccccc2C(=O)c2oc(-c3ccc(F)cc3Cl)nc21` is lower in residual activity: 38.5% for the first, 23.5% for the second.

First: O=C1c2ccccc2C(=O)c2oc(-c3c(F)cccc3F)nc21
Second: COc1cc(F)cc(-c2nc3c([nH]2)C(=O)c2ccccc2C3=O)c1
The residual activity of the first is lower: 24% for the first, 77.9% for the second.

target: T1, Ubiquitin carboxyl-terminal hydrolase 8 (Homo sapiens); assay: Inhibition of N-terminal His-6 tagged USP8 (734 to 1110 residues) (unknown origin) expressed in Escherichia coli BL21 (DE3) cells at 100 nM measured after 3 hrs by fluorescence based Plate reader method relative to control; details: values are per cent of control

First: O=C1c2ccccc2C(=O)c2oc(-c3cccc(OCCN4CCOCC4)c3)nc21
Second: CN1CC[C@H](Oc2cccc(-c3nc4c(o3)C(=O)c3ccccc3C4=O)c2)C1
The residual activity of the first is higher: 44.3% for the first, 29.8% for the second.

First: COc1ccc(F)c(-c2nc3c(o2)C(=O)c2ccccc2C3=O)c1Cl
Second: O=C1c2ccccc2C(=O)c2oc(-c3c(F)ccc(F)c3F)nc21
The residual activity of the first is higher: 23.6% for the first, 21.9% for the second.

First: COc1ccc(F)c(-c2nc3c(o2)C(=O)c2ccccc2C3=O)c1
Second: COc1cccc(-c2nc3c(o2)C(=O)c2ccccc2C3=O)c1
The residual activity of the first is higher: 33.1% for the first, 32.9% for the second.

First: COc1c(Cl)ccc(Cl)c1-c1nc2c(o1)C(=O)c1ccccc1C2=O
Second: COc1cc(Cl)cc(-c2nc3c(o2)C(=O)c2ccccc2C3=O)c1
The residual activity of the first is higher: 35.6% for the first, 24% for the second.

Going from `O=C1c2ccccc2C(=O)c2oc(-c3cccc(F)c3)nc21` to `O=C1c2ccccc2C(=O)c2oc(-c3cccc([N+](=O)[O-])c3)nc21`, the residual activity falls from 37.2% to 29.4%.

First: O=C1c2ccccc2C(=O)c2oc(-c3ccccc3F)nc21
Second: O=C1c2ccccc2C(=O)c2oc(-c3cccc(F)c3F)nc21
The residual activity of the first is lower: 19.2% for the first, 22.7% for the second.

Going from `COc1cc(-c2nc3c(o2)C(=O)c2ccccc2C3=O)ccc1C` to `COc1cc(-c2nc3c(o2)C(=O)c2ccccc2C3=O)ccc1C(F)(F)F`, the residual activity falls from 56.7% to 42.7%.

Compared with `COc1cc(O[C@@H]2CCN(C)C2)cc(-c2nc3c(o2)C(=O)c2ccccc2C3=O)c1`, `CN1CC[C@@H](Oc2cccc(-c3nc4c(o3)C(=O)c3ccccc3C4=O)c2)C1` is lower in residual activity: 46.2% for the first, 30% for the second.

Going from `CN1CC[C@@H](Oc2ccc(-c3nc4c(o3)C(=O)c3ccccc3C4=O)cc2Cl)C1` to `O=C1c2ccccc2C(=O)c2oc(-c3ccc(F)cc3Cl)nc21`, the residual activity rises from 31.2% to 37.4%.

Compared with `O=C1c2ccccc2C(=O)c2oc(-c3c(F)cccc3F)nc21`, `COc1cc(F)cc(-c2nc3c([nH]2)C(=O)c2ccccc2C3=O)c1` is higher in residual activity: 37.4% for the first, 85.2% for the second.

target: T2, Ubiquitin thioesterase OTUB1; assay: Inhibition of N-terminal His-6 tagged OTUB1 (40 to 271 residues) (unknown origin) expressed in Escherichia coli BL21 (DE3) cells at 10 nM using Ub-Rho measured after 0.5 to 3 hrs by fluorescence based Plate reader method relative to control; details: time 0.5-3 hrs, values are per cent of control

Compared with `O=C1c2ccccc2C(=O)c2oc(-c3cccc(OCCN4CCOCC4)c3)nc21`, `CN1CC[C@H](Oc2cccc(-c3nc4c(o3)C(=O)c3ccccc3C4=O)c2)C1` is lower in residual activity: 82.1% for the first, 75.6% for the second.

Compared with `COc1ccc(F)c(-c2nc3c(o2)C(=O)c2ccccc2C3=O)c1Cl`, `O=C1c2ccccc2C(=O)c2oc(-c3c(F)ccc(F)c3F)nc21` is higher in residual activity: 23.3% for the first, 40.7% for the second.

First: COc1ccc(F)c(-c2nc3c(o2)C(=O)c2ccccc2C3=O)c1
Second: COc1cccc(-c2nc3c(o2)C(=O)c2ccccc2C3=O)c1
The residual activity of the first is higher: 75% for the first, 61.7% for the second.

First: COc1c(Cl)ccc(Cl)c1-c1nc2c(o1)C(=O)c1ccccc1C2=O
Second: COc1cc(Cl)cc(-c2nc3c(o2)C(=O)c2ccccc2C3=O)c1
The residual activity of the first is lower: 69.4% for the first, 74.4% for the second.

Going from `O=C1c2ccccc2C(=O)c2oc(-c3cccc(F)c3)nc21` to `O=C1c2ccccc2C(=O)c2oc(-c3cccc([N+](=O)[O-])c3)nc21`, the residual activity falls from 55.3% to 47.8%.

Compared with `O=C1c2ccccc2C(=O)c2oc(-c3ccccc3F)nc21`, `O=C1c2ccccc2C(=O)c2oc(-c3cccc(F)c3F)nc21` is lower in residual activity: 55.5% for the first, 50.2% for the second.

Going from `COc1cc(-c2nc3c(o2)C(=O)c2ccccc2C3=O)ccc1C` to `COc1cc(-c2nc3c(o2)C(=O)c2ccccc2C3=O)ccc1C(F)(F)F`, the residual activity rises from 70.8% to 71.4%.

First: COc1cc(O[C@@H]2CCN(C)C2)cc(-c2nc3c(o2)C(=O)c2ccccc2C3=O)c1
Second: CN1CC[C@@H](Oc2cccc(-c3nc4c(o3)C(=O)c3ccccc3C4=O)c2)C1
The residual activity of the first is higher: 77.1% for the first, 70.7% for the second.

First: CN1CC[C@@H](Oc2ccc(-c3nc4c(o3)C(=O)c3ccccc3C4=O)cc2Cl)C1
Second: O=C1c2ccccc2C(=O)c2oc(-c3ccc(F)cc3Cl)nc21
The residual activity of the first is higher: 69.8% for the first, 47.6% for the second.

Going from `O=C1c2ccccc2C(=O)c2oc(-c3c(F)cccc3F)nc21` to `COc1cc(F)cc(-c2nc3c([nH]2)C(=O)c2ccccc2C3=O)c1`, the residual activity rises from 56.2% to 84.8%.
